Experimental data: patent publication US10000473B2, “Indazole derivatives useful as glucagon receptor antagonists” (Janssen Pharmaceutica NV, priority 2016, dated 2018)
“And” between values parts separate entries of the source, which are not always exact repeats. Equal entries are not always repeated.

Molecular target: T1, human GCGR (Homo sapiens, UniProt P47871)
T1 construct: expressed in transfected cells; host or cells: HEK293 (hGluc-1HEK), pcDNA3.1, G418 selection
Experiment: Cellular functional assay, cAMP readout (glucagon-stimulated cAMP, LANCE TR-FRET)
Type: cell-based
Details: HEK293 cells stably expressing full-length human GCGR; glucagon 100 pM; IC50 converted to Ki; read-out: Inhibition of cAMP Ki
Description: IC50 Values in Cellular Functional Assays: cAMP Readout
Full-length human GCGR (Accession Number: NM000160) subcloned into pcDNA3.1 was stably transfected into HEK293 cells (hGluc-1HEK) and maintained under G418 selection (500 μg/mL). Cell cultures were maintained in DMEM/F12 media supplemented with 10% FBS and 1% GlutaMax™ Supplement (Available from ThermoFisher Scientific, catalog #35050061). Glucagon stimulated cAMP was quantified using LANCE technology as per manufacturer instructions. On the day of the experiment, spent media was removed and cells were washed with Hank's Buffered Saline solution (HBSS), and cells harvested with non-enzymatic cell dissociation solution, then washed once with HBSS. Cells were re-suspended in stimulation buffer at a concentration of 0.83×10^6 cells/ml and cAMP detection antibody was added. 6 μl/well of this solution was then dispensed in a 384 well plate (cell density 5000 cells/well). Test compound was serially diluted in DMSO and 50 nl were dispensed on top of the cell solution and allowed to incubate for 30 minutes. 6 μl of a 2× glucagon solution (final concentration in assay 100 pM) was then added and the reaction was terminated after 5 minutes with the addition of detection mix. The resulting mixture was incubated, protected from light for 1.5 h. cAMP levels were quantified by TR-FRET in an EnVision instrument against a known standard. IC50's were generated by using a non-linear regression macro driven in Excel and converted to Ki values.

T1 sequence (P47871 26-477): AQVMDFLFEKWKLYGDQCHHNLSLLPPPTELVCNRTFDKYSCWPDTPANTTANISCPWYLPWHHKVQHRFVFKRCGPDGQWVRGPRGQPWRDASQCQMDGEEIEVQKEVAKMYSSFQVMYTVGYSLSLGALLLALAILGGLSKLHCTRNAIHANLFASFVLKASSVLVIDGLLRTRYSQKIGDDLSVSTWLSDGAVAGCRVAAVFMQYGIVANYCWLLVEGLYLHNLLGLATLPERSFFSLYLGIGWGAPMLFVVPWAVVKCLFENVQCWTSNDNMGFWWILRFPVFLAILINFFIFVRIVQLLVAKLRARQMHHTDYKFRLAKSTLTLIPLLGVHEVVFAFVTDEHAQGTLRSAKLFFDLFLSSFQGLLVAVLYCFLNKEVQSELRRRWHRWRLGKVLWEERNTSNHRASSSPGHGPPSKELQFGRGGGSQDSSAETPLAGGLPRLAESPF

Row | SMILES | Ki
1 | CC(C)CC(c1ccc(C(=O)NCCC(=O)O)cc1)n1ncc2cc(-c3ccc(C(C)(C)C)cc3)ccc21 (single isomer, unassigned) [Compound #37] | 62 nM and 130 nM
2 | CC(C)CC(c1ccc(C(=O)NCCC(=O)O)cc1)n1ncc2cc(-c3ccc(C(C)(C)C)cc3)ccc21 (single isomer, unassigned) [Compound #163] | 465 nM
3 | CC(C)CC(c1ccc(C(=O)NCCC(=O)O)cc1)n1ncc2cc(-c3ccc(C(C)(C)C)cc3)ccc21 (centres unmarked) [Compound #1, 3-(4-(1-(5-(4-(tert-Butyl)phenyl)-1H-indazol-1-yl)-3-methylbutyl)benzamido)propanoic acid] | 90 nM and 159 nM
4 | CC(C)CC(c1ccc(C(=O)NCCC(=O)O)nc1)n1cc2cc(-c3ccc(C(C)(C)C)cc3)ccc2n1 (centres unmarked) [Compound #2] | 700 nM
5 | CC(C)CC(c1ccc(C(=O)NCCC(=O)O)cc1)n1ncc2cc(-c3ccccc3)ccc21 (centres unmarked) [Compound #4] | 1100 nM
6 | CC(C)CC(c1ccc(C(=O)NCCC(=O)O)cc1)n1ncc2cc(-c3ccc(F)cc3)ccc21 (centres unmarked) [Compound #5] | 600 nM
7 | CC(C)CC(c1ccc(C(=O)NCCC(=O)O)cc1)n1ncc2cc(-c3ccc4ncccc4c3)ccc21 (centres unmarked) [Compound #7] | 800 nM
8 | CC(C)CC(c1ccc(C(=O)NCCC(=O)O)cc1)n1ncc2cc(-c3cnn(C)c3)ccc21 (centres unmarked) [Compound #12, 3-(4-(3-Methyl-1-(5-(1-methyl-1H-pyrazol-4-yl)-1H-indazol-1-yl)butyl)benzamido)propanoic acid] | 2300 nM
9 | Cc1cc(Cl)ccc1-c1ccc2c(cnn2C(CC(C)C)c2ccc(C(=O)NCCC(=O)O)nc2)c1 (centres unmarked) [Compound #14, 3-(5-(1-(5-(4-Chloro-2-methylphenyl)-1H-indazol-1-yl)-3-methylbutyl)picolinamido)propanoic acid] | 447 nM
10 | CC(C)CCn1cc(-c2ccc3nn(C(CC(C)C)c4ccc(C(=O)NCCC(=O)O)cc4)cc3c2)cn1 (centres unmarked) [Compound #17] | > 5200 nM
11 | Cc1c(-c2ccc(C(F)(F)F)cc2Cl)ccc2nn(C(CC(C)C)c3ccc(C(=O)NCCC(=O)O)cc3)cc12 (centres unmarked) [Compound #18, 3-(4-(1-(5-(2-Chloro-4-(trifluoromethyl)phenyl)-4-methyl-2H-indazol-2-yl)-3-methylbutyl)benzamido)propanoic acid] | 14 nM and 44 nM
12 | Cc1cc(C(F)(F)F)ccc1-c1ccc2nn(C(CC(C)C)c3ccc(C(=O)NCCC(=O)O)nc3)cc2c1 (centres unmarked) [Compound #19] | 47 nM and 49 nM
13 | CCCC(c1ccc(C(=O)NCCC(=O)O)cc1)n1cc2cc(-c3ccc(C(C)(C)C)cc3)ccc2n1 (centres unmarked) [Compound #22, 3-(4-(1-(5-(4-(tert-Butyl)phenyl)-2H-indazol-2-yl)butyl)benzamido)propanoic acid] | 800 nM
14 | CC(C)CC(c1ccc(C(=O)NCCC(=O)O)nc1)n1ncc2cc(-c3ccc(C(C)(C)C)cc3)ccc21 (centres unmarked) [Compound #36, 3-(5-(1-(5-(4-(tert-Butyl)phenyl)-1H-indazol-1-yl)-3-methylbutyl)picolinamido)propanoic acid] | 430 nM
15 | Cc1cc(Cl)ccc1-c1ccc2c(cnn2C(CCC(F)(F)F)c2ccc(C(=O)NCCC(=O)O)cc2)c1 (centres unmarked) [Compound #40, 3-[[4-[1-[5-(4-Chloro-2-methyl-phenyl)indazol-1-yl]-4,4,4-trifluorobutyl]benzoyl]amino]propanoic acid] | 490 nM
16 | O=C(O)CCNC(=O)c1ccc(C(CCC(F)(F)F)n2ncc3cc(-c4cc(Cl)cc(Cl)c4)ccc32)cc1 (centres unmarked) [Compound #45, 3-[[4-[1-[5-(3,5-Dichlorophenyl)indazol-1-yl]-4,4,4-trifluorobutyl]benzoyl]amino]propanoic acid] | 1650 nM

More lines, in order of falling Ki, values ahead:

Row | Ki | SMILES
17 | 210 nM | Cc1cc(Cl)ccc1-c1ccc2c(cnn2C(CC(C)C)c2ccc(C(=O)NCCC(=O)O)cc2)c1 (centres unmarked) [Compound #39, 3-(4-(1-(5-(4-Chloro-2-methylphenyl)-1H-indazol-1-yl)-3-methylbutyl)benzamido)propanoic acid]
18 | 190 nM | CC(C)CC(c1ccc(C(=O)NCCC(=O)O)cc1)n1ncc2cc(-c3ccc(Cl)cc3Cl)ccc21 (centres unmarked) [Compound #9, 3-(4-(1-(5-(2,4-Dichlorophenyl)-1H-indazol-1-yl)-3-methylbutyl)benzamido)propanoic acid]
19 | 175 nM | O=C(O)CCNC(=O)c1ccc(C(CCC(F)(F)F)n2ncc3cc(-c4cc5ccccc5o4)ccc32)cc1 (centres unmarked) [Compound #11, 3-[[4-[1-[5-(Benzofuran-2-yl)indazol-1-yl]-4,4,4-trifluorobutyl]benzoyl]amino]propanoic acid]
20 | 175 nM | CC(C)CC(c1ccc(C(=O)NCCC(=O)O)nc1)n1ncc2cc(-c3ccc(C(F)(F)F)cc3Cl)ccc21 (centres unmarked) [Compound #43, 3-(5-(1-(5-(2-Chloro-4-(trifluoromethyl)phenyl)-1H-indazol-1-yl)-3-methylbutyl)picolinamido)propanoic acid]
21 | 160 nM | Cc1cc(C(F)(F)F)ccc1-c1ccc2c(cnn2C(CCC(F)(F)F)c2ccc(C(=O)NCCC(=O)O)cc2)c1 (centres unmarked) [Compound #44, 3-[[4-[4,4,4-Trifluoro-1-[5-[2-methyl-4-(trifluoromethyl)phenyl]indazol-1-yl]butyl]benzoyl]amino]propanoic acid]
22 | 144 nM | CC(C)CCC(c1ccc(C(=O)NCCC(=O)O)cc1)n1ncc2cc(-c3ccc(C(C)(C)C)cc3)ccc21 (centres unmarked) [Compound #23, 3-(4-(1-(5-(4-(tert-Butyl)phenyl)-1H-indazol-1-yl)-4-methylpentyl)benzamido)propanoic acid]
23 | 114 nM | CC(C)(C)c1ccc(-c2ccc3c(cnn3C(CC3CCCCC3)c3ccc(C(=O)NCCC(=O)O)cc3)c2)cc1 (centres unmarked) [Compound #24, 3-(4-(1-(5-(4-(tert-Butyl)phenyl)-1H-indazol-1-yl)-2-cyclohexylethyl)benzamido)propanoic acid]
24 | 102 nM | Cc1cc2c(cnn2C(CC(C)C)c2ccc(C(=O)NCCC(=O)O)cc2)cc1-c1ccc(C(F)(F)F)cc1 (centres unmarked) [Compound #25, 3-[[4-[3-Methyl-1-[6-methyl-5-[4-(trifluoromethyl)phenyl]indazol-1-yl]butyl]benzoyl]amino]propanoic acid]
25 | 92 nM | Cc1cc(C(F)(F)F)ccc1-c1ccc2c(cnn2C(CC(C)C)c2ccc(C(=O)NCCC(=O)O)cc2)c1C (centres unmarked) [Compound #21, 3-(4-(3-Methyl-1-(4-methyl-5-(2-methyl-4-(trifluoromethyl)phenyl)-1H-indazol-1-yl)butyl)benzamido)propanoic acid]
26 | 86 nM | CC(C)CC(c1ccc(C(=O)NCCC(=O)O)cc1)n1cc2cc(-c3ccc(C(C)(C)C)cc3)ccc2n1 (centres unmarked) [Compound #34, 3-(4-(1-(5-(4-(tert-butyl)phenyl)-2H-indazol-2-yl)-3-methylbutyl)benzamido)propanoic acid]
27 | 86 nM | CC(C)CC(c1ccc(C(=O)NCCC(=O)O)cc1)n1ncc2cc(-c3ccc(C(F)(F)F)cc3Cl)ccc21 (centres unmarked) [Compound #41, 3-(4-(1-(5-(2-Chloro-4-(trifluoromethyl)phenyl)-1H-indazol-1-yl)-3-methylbutyl)benzamido)propanoic acid]
28 | 76 nM | CC(C)CC(c1ccc(C(=O)NCCC(=O)O)cc1)n1cc2cc(-c3cc4ccccc4o3)ccc2n1 (centres unmarked) [Compound #13]
29 | 70 nM | CC(C)CC(c1ccc(C(=O)NCCC(=O)O)nc1)n1cc2cc(-c3ccc(C(F)(F)F)cc3Cl)c(Cl)cc2n1 (centres unmarked) [Compound #33, 3-[[5-[1-[6-Chloro-5-[2-chloro-4-(trifluoromethyl)phenyl]indazol-2-yl]-3-methyl-butyl]pyridine-2-carbonyl]amino]propanoic acid]
30 | 65 nM | O=C(O)CCNC(=O)c1ccc(C(CCC(F)(F)F)n2cc3cc(-c4ccc(C(F)(F)F)cc4Cl)ccc3n2)cc1 (centres unmarked) [Compound #16, 3-[[4-[1-[5-[2-Chloro-4-(trifluoromethyl)phenyl]indazol-2-yl]-4,4,4-trifluorobutyl]benzoyl]amino]propanoic acid]
31 | 60 nM | COc1c(-c2ccc(C(F)(F)F)cc2C)ccc2c1cnn2C(CC(C)C)c1ccc(C(=O)NCCC(=O)O)cc1 (centres unmarked) [Compound #29, 3-(4-(1-(4-Methoxy-5-(2-methyl-4-(trifluoromethyl)phenyl)-1H-indazol-1-yl)-3-methylbutyl)benzamido)propanoic acid]
32 | 59 nM | Cc1cc(Cl)ccc1-c1ccc2nn(C(CCC(F)(F)F)c3ccc(C(=O)NCCC(=O)O)cc3)cc2c1 (centres unmarked) [Compound #8, 3-[[4-[1-[5-(4-Chloro-2-methyl-phenyl)indazol-2-yl]-4,4,4-trifluorobutyl]benzoyl]amino]propanoic acid]
33 | 45 nM | CCCCCCC(c1ccc(C(=O)NCCC(=O)O)cc1)n1cc2cc(-c3ccc(C(F)(F)F)cc3)ccc2n1 (centres unmarked) [Compound #26]
34 | 44 nM | Cc1cc(C(F)(F)F)ccc1-c1cc2cn(C(CC(C)C)c3ccc(C(=O)NCCC(=O)O)cc3)nc2cc1Cl (centres unmarked) [Compound #30, 3-[[4-[1-[6-Chloro-5-[2-methyl-4-(trifluoromethyl)phenyl]indazol-2-yl]-3-methyl-butyl]benzoyl]amino]propanoic acid]
35 | 25 nM | Cc1cc(Cl)ccc1-c1ccc2nn(C(CC(C)C)c3ccc(C(=O)NCCC(=O)O)cc3)cc2c1C (centres unmarked) [Compound #20, 3-(4-(1-(5-(4-Chloro-2-methylphenyl)-4-methyl-2H-indazol-2-yl)-3-methylbutyl)benzamido)propanoic acid]
